± gives the standard deviation of the averaged measurements. Blank lines part the entries; values can stand above or below the compound they belong to.
Assays:
Details in all cases: treatment time: 3 days
UT-SCC-24B [1] = test: relative IC50 (midpoint of the fitted curve; maximal inhibition may be below 50%); higher = less potent
In short: (§1)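 Viability of HPV-negative HNSCC cell lines was measured by CellTiter-Glo 2.0 luminescence. Cells were seeded at 500 cells/well in 384-well plates on plastic, on Matrigel- or Myogel-coated wells (500 µg/mL), or embedded in Matrigel or Myogel plus rat collagen I, then given compounds at five 10-fold concentrations for 3 days, with signals normalised to vehicle (0.1% DMSO) and cell-killing control wells. Fitting of percent-inhibition dose–response curves in the FIMM pipeline yielded IC50, maximal inhibition and drug sensitivity score.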

UT-SCC-73 = test: as above
In short: as §1

UT-SCC-14 [2] = test: as above
In short: as §1

UT-SCC-42A = test: as above
In short: as §1

UT-SCC-28 = test: as above
In short: as §1

UT-SCC-44 = test: as above
In short: as §1

UT-SCC-106A = test: as above
In short: as §1

UT-SCC-24A [3] = test: maximal % inhibition of viability relative to DMSO; higher = stronger effect
Description: (§2)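 HNSCC cell lines (500 cells/well, 384-well) were cultured on plastic, on top of (2D) or embedded (3D) in Matrigel or human leiomyoma matrix Myogel (500 ug/mL; Myogel 3D mixed with rat collagen I). Cells were treated for 3 days with 5 ten-fold concentrations of each drug, and viability was read by CellTiter-Glo. Viability was normalised to DMSO (0% inhibition) and 100 uM benzethonium chloride (100% inhibition) controls and fitted with the FIMM DSRT pipeline to give IC50 (nM), maximal % inhibition and the drug sensitivity score (DSS). Suffixes _1/_2/_3 on drug names are replicates.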

UT-SCC-24A [4] = test: drug sensitivity score (DSS); higher = more sensitive
Description: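 HNSCC cell lines (500 cells/well, 384-well) were cultured on plastic, on top of (2D) or embedded (3D) in Matrigel or human leiomyoma matrix Myogel (500 ug/mL; Myogel 3D mixed with rat collagen I). Cells were treated for 3 days with 5 ten-fold concentrations of each drug, and viability was read by CellTiter-Glo. Suffixes _1/_2/_3 on drug names are replicates.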

UT-SCC-24B [5] = test: drug sensitivity score (DSS); higher = more sensitive; extreme values may be limits of the assay
In short: as §1

UT-SCC-14 [6] = test: as above
In short: as §1

UT-SCC-8 = test: relative IC50 (midpoint of the fitted curve; maximal inhibition may be below 50%); higher = less potent
In short: as §1

UT-SCC-40 = test: as above
In short: as §1

UT-SCC-81 = test: as above
In short: as §1

UT-SCC-42B = test: as above
In short: as §1

UT-SCC-24A [7] = test: relative IC50 (midpoint of the fitted curve; maximal inhibition may be below 50%); higher = less potent
Description: as §2

[8] = culture condition: embedded in Myogel + collagen I
[9] = culture condition: on top of Matrigel
[10] = culture condition: on top of Myogel
[11] = culture condition: plastic 2D (no matrix)
[12] = culture condition: embedded in Matrigel

- relative IC50 (UT-SCC-24B [1]; [8]): 0.163 µM
- relative IC50 (UT-SCC-24B [1]; [9]): 0.363 µM
- relative IC50 (UT-SCC-24B [1]; [10]): 0.562 µM
- relative IC50 (UT-SCC-24B [1]; [11]): 0.337 µM
- relative IC50 (UT-SCC-73; [12]): 0.272 µM
- relative IC50 (UT-SCC-14 [2]; [10]): 0.543 µM
- relative IC50 (UT-SCC-14 [2]; [11]): 0.741 µM
- relative IC50 (UT-SCC-42A; [12]): 1.81 µM
- relative IC50 (UT-SCC-28; [9]): 0.118 µM
- relative IC50 (UT-SCC-44; [12]): 0.0789 µM
- relative IC50 (UT-SCC-44; [10]): 0.805 µM
- relative IC50 (UT-SCC-106A; [12]): 0.0989 µM
- relative IC50 (UT-SCC-106A; [11]): 0.193 µM
Structure (SMILES): COc1ccc(-c2cc3c(C)nc(N)nc3n([C@H]3CC[C@H](OCCO)CC3)c2=O)cn1
- maximal % inhibition of viability (UT-SCC-24A [3]; [12]): 79.2 ± 19%
- maximal % inhibition of viability (UT-SCC-24A [3]; [8]): 61.6 ± 18%
- maximal % inhibition of viability (UT-SCC-24A [3]; [9]): 71.5 ± 12%
- maximal % inhibition of viability (UT-SCC-24A [3]; [10]): 54.5 ± 16%
- maximal % inhibition of viability (UT-SCC-24A [3]; [11]): 72.1 ± 23%
- drug sensitivity score (UT-SCC-24A [4]; [12]): 17 ± 7.7 DSS
- drug sensitivity score (UT-SCC-24A [4]; [8]): 9.63 ± 6.9 DSS
- drug sensitivity score (UT-SCC-24A [4]; [9]): 11.9 ± 4.7 DSS
- drug sensitivity score (UT-SCC-24A [4]; [10]): 5.83 ± 2.9 DSS
- drug sensitivity score (UT-SCC-24A [4]; [11]): 11.4 ± 7.7 DSS
- drug sensitivity score (UT-SCC-24B [5]; [12]): 15.4 ± 3.6 DSS
- drug sensitivity score (UT-SCC-24B [5]; [8]): 19.8 ± 1.6 DSS
- drug sensitivity score (UT-SCC-24B [5]; [9]): 16.1 ± 1.8 DSS
- drug sensitivity score (UT-SCC-24B [5]; [10]): 13.9 ± 1.9 DSS
- drug sensitivity score (UT-SCC-24B [5]; [11]): 16.6 ± 3.5 DSS
- drug sensitivity score (UT-SCC-14 [6]; [12]): 14.9 ± 7.8 DSS
- drug sensitivity score (UT-SCC-14 [6]; [8]): 8.67 ± 4.7 DSS
- drug sensitivity score (UT-SCC-14 [6]; [9]): 12.8 ± 5.7 DSS
- drug sensitivity score (UT-SCC-14 [6]; [10]): 9.9 ± 2.5 DSS
- drug sensitivity score (UT-SCC-14 [6]; [11]): 9.5 ± 2 DSS

- relative IC50 (UT-SCC-24B [1]; [12]): 0.0555 µM
- relative IC50 (UT-SCC-24B [1]; [8]): 0.0221 µM
- relative IC50 (UT-SCC-24B [1]; [9]): 0.0334 µM
- relative IC50 (UT-SCC-24B [1]; [10]): 0.0313 µM
- relative IC50 (UT-SCC-24B [1]; [11]): 0.0347 µM
- relative IC50 (UT-SCC-73; [8]): > 0.989 µM
- relative IC50 (UT-SCC-73; [10]): > 0.989 µM
- relative IC50 (UT-SCC-73; [11]): > 0.989 µM
- relative IC50 (UT-SCC-14 [2]; [8]): > 0.989 µM
- relative IC50 (UT-SCC-14 [2]; [10]): > 0.989 µM
- relative IC50 (UT-SCC-8; [12]): > 0.989 µM
- relative IC50 (UT-SCC-8; [11]): > 0.989 µM
- relative IC50 (UT-SCC-42A; [12]): > 0.989 µM
- relative IC50 (UT-SCC-42A; [8]): > 0.989 µM
- relative IC50 (UT-SCC-42A; [9]): > 0.989 µM
- relative IC50 (UT-SCC-42A; [10]): > 0.989 µM
- relative IC50 (UT-SCC-42A; [11]): > 0.989 µM
- relative IC50 (UT-SCC-40; [10]): > 0.989 µM
- relative IC50 (UT-SCC-40; [11]): > 0.989 µM
- relative IC50 (UT-SCC-81; [8]): > 0.989 µM
- relative IC50 (UT-SCC-81; [10]): > 0.989 µM
- relative IC50 (UT-SCC-81; [11]): > 0.989 µM
- relative IC50 (UT-SCC-28; [12]): > 0.989 µM
- relative IC50 (UT-SCC-28; [11]): > 0.989 µM
- relative IC50 (UT-SCC-42B; [12]): > 0.989 µM
- relative IC50 (UT-SCC-42B; [9]): > 0.989 µM
- relative IC50 (UT-SCC-42B; [10]): > 0.989 µM
- relative IC50 (UT-SCC-42B; [11]): > 0.989 µM
- relative IC50 (UT-SCC-44; [12]): > 0.989 µM
- relative IC50 (UT-SCC-44; [8]): > 0.989 µM
- relative IC50 (UT-SCC-106A; [12]): > 0.989 µM
- relative IC50 (UT-SCC-106A; [9]): > 0.989 µM
- relative IC50 (UT-SCC-106A; [10]): > 0.989 µM
- relative IC50 (UT-SCC-24A [7]; [9]): > 0.989 µM
- relative IC50 (UT-SCC-24A [7]; [10]): > 0.989 µM
- relative IC50 (UT-SCC-24A [7]; [11]): > 0.989 µM
Structure (SMILES): Cn1c(=O)n(-c2ccc(C(C)(C)C#N)cc2)c2c3cc(-c4cnc5ccccc5c4)ccc3ncc21 [Dactolisib]
- maximal % inhibition of viability (UT-SCC-24A [3]; [12]): 34.6 ± 9%
- maximal % inhibition of viability (UT-SCC-24A [3]; [8]): 14.9 ± 11%
- maximal % inhibition of viability (UT-SCC-24A [3]; [9]): 14.7 ± 5.4%
- maximal % inhibition of viability (UT-SCC-24A [3]; [10]): 4.17 ± 3.1%
- maximal % inhibition of viability (UT-SCC-24A [3]; [11]): 6.6 ± 2.1%
- drug sensitivity score (UT-SCC-24A [4]; [12]): 5.73 ± 5 DSS
- drug sensitivity score (UT-SCC-24A [4]; [8]): 0.767 ± 1.3 DSS
- drug sensitivity score (UT-SCC-24A [4]; [9]): 0 DSS
- drug sensitivity score (UT-SCC-24A [4]; [10]): 0 DSS
- drug sensitivity score (UT-SCC-24A [4]; [11]): 0 DSS
- drug sensitivity score (UT-SCC-24B [5]; [12]): 11.6 ± 0.64 DSS
- drug sensitivity score (UT-SCC-24B [5]; [8]): 16.3 ± 0.52 DSS
- drug sensitivity score (UT-SCC-24B [5]; [9]): 13.4 ± 0.46 DSS
- drug sensitivity score (UT-SCC-24B [5]; [10]): 13.6 ± 0.51 DSS
- drug sensitivity score (UT-SCC-24B [5]; [11]): 12.8 ± 0.25 DSS
- drug sensitivity score (UT-SCC-14 [6]; [12]): 3.03 ± 5.2 DSS
- drug sensitivity score (UT-SCC-14 [6]; [8]): 0 DSS
- drug sensitivity score (UT-SCC-14 [6]; [9]): 0 DSS
- drug sensitivity score (UT-SCC-14 [6]; [10]): 0 DSS
- drug sensitivity score (UT-SCC-14 [6]; [11]): 0.3 ± 0.52 DSS
